Tests used:
PAIGB expression [1] = test: Real time PCR of PAIGB expression in rat tibia; type: in vivo
Protocol: RNA isolation was performed on bone as well as from different cell lines used during experimentation. RNA was isolated from rat tibiae as follows. Following euthanasia by CO2 asphyxiation tibiae were dissected free of soft tissue as rapidly as possible with autoclaved instruments, wiped with autoclaved gauze soaked in ethanol and the epiphysis broken off at the proximal growth plate by hand and discarded. The tibia was then cut transversely with bone cutters just distal to the proximal growth plate and just proximal to the distal tibia-fibula junction to expose the trabecular bone and the bone marrow. The trabecular bone and marrow cavity was flushed with ice cold sterile PBS using a Lancer liquid transfer pipette (Oxford Labware, St. Louis, Mo.) to remove the marrow and the cleaned bone placed in liquid nitrogen.
Applicants performed multiplex real time PCR (TaqMan) analysis on previously DNAsed samples using gene specific probe and primers and 18S ribosomal RNA probe and primer sets purchased from Applied Biosystem. (Foster City, Calif.) The samples were DNAsed according to the protocol provided by Ambion (DNA-free kit). TaqMan probe and primers for PAIGB was identify using Primer Express computer program. The sequence for rat PAIGB TaqMan probe was 6FAM-5′[…] (SEQ ID NO: 16) forward and reverse primers were 5′[…] 3′ (SEQ ID NO:17) and 5′ […] 3′ (SEQ ID NO:18) respectively. The final concentrations for probes were 500 nM and 40 nM for PAIGB and 18S ribosomal RNA or GAPDH respectively. The concentrations of the primers were 500 nM for PAIGB forward and reversed primers while 18S primers were 10 and 20 nM for forward and reversed primer respectively or 40 nM for GAPDH primers. Standards for rat samples were made from rat tibia or brain RNA in the range of 250 ng to 0.1 ng, while standards for mouse specific TaqMan were made from mouse brain RNA and human standards from human brain RNA (Clonetech, Palo Alto, Calif.) spanning the same range of concentration. Primers and probes for mouse PAIGB were: forward 5′ […] 3′ (SEQ ID NO:19), reverse, 5′ […] 3′ (SEQ ID NO:20) anti-sense and probe 5′ 6FAM-[…] (SEQ ID NO:21). Primers and probes for human PAIGB were: forward 5′ […] 3′ (SEQ ID NO:22), reverse 5′ […] 3′(SEQ ID NO:23), and PROBE 5′ 6FAM-[…] 3′(SEQ ID NO: 24). The Taq-man analysis was done using ABI 7700 Sequence Detector under following conditions: 30 min at 48° C., 10 min at 95° C. and 40 cycles of 15 sec at 95° C. and 60 sec at 60° C. Analysis of real-time PCR analysis was performed using (Sequence Detector, Macintosh) program.
The initial experiments measured the expression of PAIGB in the rat tibia after 8 days of treatment. In order to examine the time course of PTH action on PAIGB expression, experiments were performed on rats treated with intermittent PTH injections (40 μg/kg body weight) and tibias were collected for RNA isolation as well as evaluation in BMD changes. Time points of sample collection were 6 hours, 2 days, 4 days and 8 days after intermittent PTH treatment. Real time PCR analysis was performed on isolated RNA samples using above described primers.
The observed increase in PAIGB expression in bone treated with PTH is dose-dependent (FIG. 10B). OVX rats with established osteopenia were treated with increasing concentration of human PTH (1-34): 5, 10, 20, 40 and 80 μg/kg of body weight for 8 days with one daily injection. Six hours after last injection animals were scarified and bone samples were harvested for RNA isolation as described in Experimental Procedure section.

[2] = tested on: PAIGB expression in U2OS cells; test: RT-PCR and real time PCR of PAIGB expression in U2OS cells; type: cell-based, human; details: 1 or 10 nM
Protocol: RNA samples were subject to RT-PCR and Taq-man analysis using probe and primers to PAIGB polynucleotide sequences and GAPDH as well as 18S ribosomal RNA. RT-PCR was done using TaKaRa kit (Panvera, Shiga, Japan) according to manufacturer recommendation. RT reaction was done under following conditions: 30° C. for 10 min, 42° C. for 50 min, 99° C. for 5 min and 4° C. for 5 min. PCR conditions were: 94° C. for 5 min, 35 cycles of 94° C. for 2 min, 62° C. for 30″, 72° C. for 1 min and 30 sec, and 72° C. for 10 min. The PCR products were separated on 1% agarose gel.
Applicants performed multiplex real time PCR (TaqMan) analysis on previously DNAsed samples using gene specific probe and primers and 18S ribosomal RNA probe and primer sets purchased from Applied Biosystem. (Foster City, Calif.) The samples were DNAsed according to the protocol provided by Ambion (DNA-free kit). TaqMan probe and primers for PAIGB was identify using Primer Express computer program. The sequence for rat PAIGB TaqMan probe was 6FAM-5′[…] (SEQ ID NO: 16) forward and reverse primers were 5′[…] 3′ (SEQ ID NO:17) and 5′ […] 3′ (SEQ ID NO:18) respectively. The final concentrations for probes were 500 nM and 40 nM for PAIGB and 18S ribosomal RNA or GAPDH respectively. […]

PAIGB expression [3] = test: Northern blot of PAIGB in rat tibia RNA; type: in vivo; details: intermittent PTH
Protocol: Isolated RNA was run on 1.2% agorase gel in 1×MOPS ((3-[N-morpholino]propanesulfonic acid) buffer) and formaldehyde. RNA gel was run in 1×MOPS (Sigma). RNA was transferred on nylon membrane (S&S) using Turbo-blot according to instruction provided by manufacturer (S&S). RADE fragment(s) as well as GAPDH or ciclophylin were labeled using random prime labeling kit (Gibco, BRL) according to provided instructions. Hybridization with labeled probes was performed using ExpressHyb (Sigma), at 68° C. over night. Blots were washed 2 times at room temperature for 15 min in low stringency buffer (2×SSC, 0.1% SDS), and 1 time at 65° C. for 15 min in […]. Blots were exposed over night using Kodak film.
In order to confirm the results from RADE experiments data, Northern blot analysis was done on RNA samples from rat tibia after intermittent and continuous PTH injections. […] In addition a multiple tissue northern blot was performed on the samples provided by commercially available blots. The northern blot analysis indicated very abundant expression of PAIGB in brain, but little expression in heart and lung.

Substance: human PTH (1-34)
- increase of PAIGB expression in bone (PAIGB expression [1]; 40 μg/kg, one daily injection, 8 days, OVX rats): 10 fold
- increase of PAIGB expression in bone (PAIGB expression [1]; 80 μg/kg, one daily injection, 8 days, OVX rats): 20 fold
- effect on PAIGB expression in bone (PAIGB expression [1]; 5, 10 and 20 μg/kg, one daily injection, 8 days, OVX rats): did not have any effect
- PAIGB expression over vehicle treated rats (PAIGB expression [1]; 4 days of intermittent injection): 20 fold
- effect on PAIGB expression in tibia (PAIGB expression [1]; intermittent 40 μg/kg, days 4 and 8, compared with day 2): at the same magnitude
- increase of PAIGB expression in tibia (PAIGB expression [1]; intermittent 40 μg/kg, two days): ~20 fold
- PAIGB expression in human U2OS osteoblastic cells [2]: induction
- increase of PAIGB expression vs vehicle (phosphor-imager, Northern blot) (PAIGB expression [3]): 36 fold
